Source: patent US20060063759A1, “Tricyclic steroid hormone nuclear receptor modulators” (priority 2002, published 2006)

Experiments:
glucocorticoid receptor = target: T1, glucocorticoid receptor (Homo sapiens, UniProt P04150); test: Glucocorticoid Receptor Binding Assay ([3H]-dexamethasone, A549 cell extract); settings: [3H]-dexamethasone binding, read-out: GR Ki
T1 construct: containing 50-200 ug of A549 cell extract and 1.86 nM [^3H]-dexamethasone; host or cells: A549 human lung epithelial cells (sonicated cell extract)
T1 sequence (P04150 1-777): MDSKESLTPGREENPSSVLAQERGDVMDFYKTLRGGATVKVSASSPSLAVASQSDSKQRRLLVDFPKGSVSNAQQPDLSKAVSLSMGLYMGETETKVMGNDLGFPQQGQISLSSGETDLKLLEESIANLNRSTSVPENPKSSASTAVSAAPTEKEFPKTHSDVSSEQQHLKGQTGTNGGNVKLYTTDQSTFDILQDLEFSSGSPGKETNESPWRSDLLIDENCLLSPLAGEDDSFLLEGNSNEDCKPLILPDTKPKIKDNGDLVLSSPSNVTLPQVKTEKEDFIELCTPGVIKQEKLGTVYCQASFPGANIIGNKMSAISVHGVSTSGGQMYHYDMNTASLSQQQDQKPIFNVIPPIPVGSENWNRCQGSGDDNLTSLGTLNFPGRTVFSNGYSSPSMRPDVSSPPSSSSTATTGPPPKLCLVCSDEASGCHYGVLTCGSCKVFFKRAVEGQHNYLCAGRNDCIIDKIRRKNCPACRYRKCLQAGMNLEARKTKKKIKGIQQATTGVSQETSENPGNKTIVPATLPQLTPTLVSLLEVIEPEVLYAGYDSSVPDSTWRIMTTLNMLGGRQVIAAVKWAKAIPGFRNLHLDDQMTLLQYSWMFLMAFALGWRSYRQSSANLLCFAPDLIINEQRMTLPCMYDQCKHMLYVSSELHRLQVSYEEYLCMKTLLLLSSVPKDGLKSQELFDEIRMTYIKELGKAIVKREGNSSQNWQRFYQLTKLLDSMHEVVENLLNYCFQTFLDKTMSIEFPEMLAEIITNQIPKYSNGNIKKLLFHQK
How it was run: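 Displacement of [3H]-dexamethasone (1.86 nM) from glucocorticoid receptor in sonicated A549 lung epithelial cell extracts, 16 h at 4 °C, pH 7.2 molybdate-containing buffer. Bound radioactivity was scintillation-counted after charcoal/dextran stripping of free ligand.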

human MR = target: T2, human MR (Homo sapiens, UniProt P08235); test: Mineralocorticoid Receptor Binding Assay ([3H]-aldosterone); settings: [3H]-aldosterone binding, human MR expressed in Sf9 cells; read-out: MR Ki
T2 construct: The full length human MR gene is cloned from a human kidney or human brain cDNA library; His tag from the pAcHLT vector (own knowledge); made in house; host or cells: Sf9 insect cells (baculovirus, pAcHLT transfer vector)
T2 sequence (P08235 1-984): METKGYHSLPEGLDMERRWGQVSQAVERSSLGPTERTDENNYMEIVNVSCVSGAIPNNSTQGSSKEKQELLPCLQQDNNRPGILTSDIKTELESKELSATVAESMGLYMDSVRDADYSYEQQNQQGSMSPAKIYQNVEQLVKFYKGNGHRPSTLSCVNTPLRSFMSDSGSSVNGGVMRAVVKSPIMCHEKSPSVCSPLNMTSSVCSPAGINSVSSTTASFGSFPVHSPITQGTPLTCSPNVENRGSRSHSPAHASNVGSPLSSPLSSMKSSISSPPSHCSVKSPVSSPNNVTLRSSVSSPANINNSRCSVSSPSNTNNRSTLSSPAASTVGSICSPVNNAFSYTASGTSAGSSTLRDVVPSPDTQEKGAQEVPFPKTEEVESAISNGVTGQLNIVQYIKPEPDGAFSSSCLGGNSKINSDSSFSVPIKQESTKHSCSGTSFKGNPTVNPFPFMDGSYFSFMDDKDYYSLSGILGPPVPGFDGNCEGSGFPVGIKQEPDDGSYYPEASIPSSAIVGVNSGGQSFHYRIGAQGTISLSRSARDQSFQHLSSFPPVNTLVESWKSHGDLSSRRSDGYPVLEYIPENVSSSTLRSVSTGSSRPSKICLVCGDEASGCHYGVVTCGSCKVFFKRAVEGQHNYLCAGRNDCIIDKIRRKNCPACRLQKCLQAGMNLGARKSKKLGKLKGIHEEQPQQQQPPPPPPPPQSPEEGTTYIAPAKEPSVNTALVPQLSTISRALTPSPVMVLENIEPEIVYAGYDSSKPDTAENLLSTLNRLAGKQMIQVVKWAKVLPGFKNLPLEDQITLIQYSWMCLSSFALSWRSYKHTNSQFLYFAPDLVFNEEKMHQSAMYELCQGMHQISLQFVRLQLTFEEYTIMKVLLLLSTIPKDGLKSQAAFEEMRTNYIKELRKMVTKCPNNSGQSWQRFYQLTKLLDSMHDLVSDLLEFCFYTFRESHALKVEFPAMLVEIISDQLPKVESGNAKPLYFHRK
How it was run: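 Receptor source: freeze-thaw lysate of baculovirus-infected Sf9 cells carrying full-length human MR, 20-25 μg protein. Incubation ~16 h at 4 °C with shaking, pH 7.5 buffer containing 30 mM sodium molybdate and 10% glycerol.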

| SMILES | Ki (glucocorticoid receptor) [nM] | Ki (human MR) [nM] |
| --- | --- | --- |
| CS(=O)(=O)Nc1cccc(/C=C2\c3ccccc3CCc3cccnc32)c1 [Example 249, (E)-N-[3-(5,6-Dihydro-benzo[5,6]cyclohepta[1,2-b]pyridin-11-ylidenemethyl)-phenyl]-methanesulfonamide] | < 500 | < 500 |
| CS(=O)(=O)Nc1cccc(/C=C2/c3ccccc3CCc3ncccc32)c1 [Example 251, (Z)-N-[3-(10,11-Dihydro-benzo[4,5]cyclohepta[1,2-b]pyridin-5-ylidenemethyl)-phenyl]-methanesulfonamide] | < 500 | < 500 |
| CS(=O)(=O)Nc1cccc(/C=C2\c3ccccc3CCc3ncccc32)c1 [Example 253, (E)-N-[3-(10,11-Dihydro-benzo[4,5]cyclohepta[1,2-b]pyridin-5-ylidenemethyl)-phenyl]-methanesulfonamide] | < 500 | < 500 |
| Oc1cccc(/C=C2\c3ccccc3CCc3ncccc32)c1 [Example 254, (E)-3-(10,11-Dihydro-benzo[4,5]cyclohepta[1,2-b]pyridin-5-ylidenemethyl)-phenol] | < 500 | < 500 |
| CS(=O)(=O)Nc1cccc(C=C2c3ccccc3C3C(c4ccccc42)C3(F)F)c1 (centres unmarked) [Example 255, N-[3-(8,8-Difluoro-4-ylidinemethyl-2,3,5,6-dibenzobicyclo[5.1.0]octane)-phenyl]-methanesulfonamide] | < 500 | < 500 |
| Oc1cccc(C=C2c3ccccc3C3C(c4ccccc42)C3(F)F)c1 (centres unmarked) [Example 256] | < 1000 | < 500 |
| Oc1cccc(C=C2c3ccccc3C3CC3c3ccccc32)c1 (centres unmarked) [Example 258] | < 500 | < 500 |
| CS(=O)(=O)Nc1cccc(/C=C2\c3ccccc3NC(=O)c3ccccc32)c1 [Example 261, N-[3-(6-Oxo-5,6-dihydro-dibenzo[b,e]azepin-11-ylidenemethyl)-phenyl]-methanesulfonamide] | < 500 | < 500 |
| CS(=O)(=O)Nc1cccc(/C=C2\c3ccccc3CSc3ccccc32)c1 [Example 262, N-[3-(11H-10-Thia-dibenzo[a,d]cyclohepten-5-ylidenemethyl)-phenyl]-methanesulfonamide] | < 500 | < 500 |
| CS(=O)(=O)Nc1cccc(/C=C2\c3ccccc3C[S+]([O-])c3ccccc32)c1 (centres unmarked) [Example 263, N-[3-(10-Oxo-10,11-dihydro-10λ^4-thia-dibenzo[a,d]cyclohepten-5-ylidenemethyl)-phenyl]-methanesulfonamide] | < 1000 | < 500 |
| CS(=O)(=O)Nc1cccc(/C=C2\c3ccccc3CS(=O)(=O)c3ccccc32)c1 [Example 264, N-[3-(10,10-Dioxo-10,11-dihydro-10λ^6-thia-dibenzo[a,d]cyclohepten-5-ylidenemethyl)-phenyl]-Methanesulfonamide] | < 10000 | < 1000 |
| CS(=O)(=O)Nc1cccc(/C=C2\c3ccccc3COc3ccccc32)c1 [Example 267, N-[3-(6H-Dibenzo[b,e]oxepine-11-ylidenemethyl)-phenyl]-methanesulfonamide] | < 500 | < 500 |
| CS(=O)(=O)Nc1cccc(/C=C2/c3ccccc3COc3ccccc32)c1 [Example 268, N-[3-(6H-Dibenzo[b,e]oxepin-11-ylidenemethyl)-phenyl]-methanesulfonamide] | < 500 | < 500 |
| COc1cccc2c1OCc1ccccc1/C2=C\c1cccc(NS(C)(=O)=O)c1 [Example 271, N-[3-(4-Methoxy-6H-dibenzo[b,e]oxepin-11-ylidenemethyl)-phenyl]-methanesulfonamide] | < 500 | < 500 |
| CS(=O)(=O)Nc1cccc(/C=C2/c3ccccc3OCc3c(Cl)cccc32)c1 [Example 274, N-[3-(7-Chloro-6H-dibenzo[b,e]oxepin-11-ylidenemethyl)-phenyl]-methanesulfonamide] | < 500 | < 500 |
| CS(=O)(=O)c1cccc(C=C2c3ccccc3CCc3ccccc32)c1 [Example 279, 5-(3-Methanesulfonyl-benzylidene)-10,11-dihydro-5H-dibenzo[a,d]cycloheptene] | < 10000 | < 500 |
| N#CNc1cccc(C=C2c3ccccc3CCc3ccccc32)c1 [Example 280] | < 1000 | < 500 |

| SMILES | Ki (glucocorticoid receptor) [nM] | Ki (human MR) [nM] |
| --- | --- | --- |
| O=S(=O)(Nc1cccc(C=C2c3ccccc3CCc3ccccc32)c1)C(F)(F)F [Example 281] | < 10000 | < 500 |
| Cc1ccccc1CC1c2ccccc2CCc2ccccc21 [Example 282] | < 500 | < 500 |
| FC(F)(F)c1ccccc1CC1c2ccccc2CCc2ccccc21 [Example 283] | < 10000 | < 500 |
| Cc1ccc(CC2c3ccccc3CCc3ccccc32)cc1NS(C)(=O)=O [Example 286] | < 10000 | < 500 |
| Nc1ccccc1CC1c2ccccc2CCc2ccccc21 [Example 287] | < 500 | < 500 |
| O=S(=O)(Nc1cccc(C=C2c3ccccc3CCc3cc(Cl)ccc32)c1)c1ccc(Cl)cc1 [Example 290] | < 1000 | < 500 |
| O=S(=O)(Nc1cccc(C=C2c3ccccc3CCc3cc(Cl)ccc32)c1)c1ccc(F)cc1 [Example 291] | < 500 | < 500 |
| Cc1ccc(S(=O)(=O)Nc2cccc(C=C3c4ccccc4CCc4cc(Cl)ccc43)c2)cc1 [Example 292] | < 500 | < 500 |
| COc1ccc(S(=O)(=O)Nc2cccc(C=C3c4ccccc4CCc4cc(Cl)ccc43)c2)cc1 [Example 293] | < 500 | < 500 |
| O=S(=O)(Nc1cccc(C=C2c3ccccc3CCc3cc(Cl)ccc32)c1)c1ccc(Cl)c(Cl)c1 [Example 294] | < 10000 | < 500 |
| O=S(=O)(Nc1cccc(C=C2c3ccccc3CCc3cc(Cl)ccc32)c1)c1cccs1 [Example 295] | < 500 | < 500 |
| Cn1cnc(S(=O)(=O)Nc2cccc(C=C3c4ccccc4CCc4cc(Cl)ccc43)c2)c1 [Example 296] | < 10000 | < 500 |
| CC(=O)Nc1nc(C)c(S(=O)(=O)Nc2cccc(C=C3c4ccccc4CCc4cc(Cl)ccc43)c2)s1 [Example 297] | < 10000 | < 500 |
| O=C(CO)c1cccc(C=C2c3ccccc3CCc3cc(Cl)ccc32)c1 [Example 298] | < 10000 | < 500 |
| COCC(=O)Nc1cccc(C=C2c3ccccc3CCc3cc(Cl)ccc32)c1 [Example 299] | < 1000 | < 500 |
| O=C(CO)Nc1cccc(C=C2c3ccccc3CCc3cc(Cl)ccc32)c1 [Example 300] | < 1000 | < 500 |
| Cc1ccc2c(c1)C(=Cc1cccc(NS(C)(=O)=O)c1)c1ccccc1CC2 [Example 301] | < 500 | < 500 |
